Measured values: ChEMBL document CHEMBL3885881, “DrugMatrix”

Organism: Rattus norvegicus
Test: DrugMatrix - Regimen: Daily Repeat
Type: toxicity, organism-based, Sprague-Dawley
Set-up: regimen Daily Repeat, gender Male, age 6-8 weeks
Conditions: in vivo, po, route oral GAVAGE, vehicle .5 % CMC; for BASOPHIL / EOSINOPHIL / ERYTHROCYTE COUNT / HEMATOCRIT / HEMOGLOBIN / LEUKOCYTE COUNT / LYMPHOCYTE / MEAN CORPUSCULAR HEMOGLOBIN / MEAN CORPUSCULAR HEMOGLOBIN CONCENTRATION / MEAN CORPUSCULAR VOLUME / MONOCYTE / NEUTROPHIL / PLATELET COUNT: tissue Blood; for ALANINE AMINOTRANSFERASE / ALBUMIN / ALKALINE PHOSPHATASE / ASPARTATE AMINOTRANSFERASE / BLOOD UREA NITROGEN / CHLORIDE / CHOLESTEROL / CREATINE PHOSPHOKINASE / CREATININE / GLUCOSE / PHOSPHORUS / POTASSIUM / SODIUM / TOTAL PROTEIN: tissue Plasma
[1] = 0 mg/kg, 72 h, dose level Control, time 3 day
[2] = 0 mg/kg, 120 h, dose level Control, time 5 day
[3] = 3 mg/kg, 72 h, dose level Low, time 3 day
[4] = 3 mg/kg, 120 h, dose level Low, time 5 day
[5] = 37 mg/kg, 72 h, dose level High, time 3 day
[6] = 37 mg/kg, 120 h, dose level High, time 5 day

In the case of `CN1CCC(=C2c3ccccc3C=Cc3ccccc32)CC1` [CYPROHEPTADINE], the BASOPHIL [1] is reported as 0%, the EOSINOPHIL [1] is reported as 0.33% and the “ERYTHROCYTE COUNT” value [1] is reported as 6.03 x10E6/uL. The HEMATOCRIT [1] was 38.8%, the HEMOGLOBIN [1] was 14.26 G/DL and the “LEUKOCYTE COUNT” value [1] was 10.64 x10E3/uL. The LYMPHOCYTE [1] was 83.33%, the “MEAN CORPUSCULAR HEMOGLOBIN” value [1] was 23.64 pg and the “MEAN CORPUSCULAR HEMOGLOBIN CONCENTRATION” value [1] was 36.74 G/DL. For the same compound, the “MEAN CORPUSCULAR VOLUME” value [1] was 64.32 fL, the MONOCYTE [1] was 3.33% and the NEUTROPHIL [1] was 13%. For the same compound, the “PLATELET COUNT” value [1] was 1264.4 x10E3/uL, the “ALANINE AMINOTRANSFERASE” value [1] was 38.83 u/L and the ALBUMIN [1] was 3.55 G/DL. The “ALKALINE PHOSPHATASE” value [1] was 368.33 u/L, the “ASPARTATE AMINOTRANSFERASE” value [1] was 66.17 u/L and the “BLOOD UREA NITROGEN” value [1] was 15.67 mg/dL. For the same compound, the CHLORIDE [1] was 104.33 MEQ/L, the CHOLESTEROL [1] was 76.5 mg/dL and the “CREATINE PHOSPHOKINASE” value [1] was 166.83 u/L. It also gave a CREATININE [1] of 0.52 mg/dL, a GLUCOSE [1] of 173.17 mg/dL and a PHOSPHORUS [1] of 11.68 mg/dL. The POTASSIUM [1] was 6.43 MEQ/L, the SODIUM [1] was 149.5 MEQ/L and the “TOTAL PROTEIN” value [1] was 5.93 G/DL. The BASOPHIL [2] was 0%, the EOSINOPHIL [2] was 0% and the “ERYTHROCYTE COUNT” value [2] was 5.88 x10E6/uL. For the same compound, the HEMATOCRIT [2] was 37.87%, the HEMOGLOBIN [2] was 14.48 G/DL and the “LEUKOCYTE COUNT” value [2] was 12.43 x10E3/uL. The LYMPHOCYTE [2] was 84.17%, the “MEAN CORPUSCULAR HEMOGLOBIN” value [2] was 24.65 pg and the “MEAN CORPUSCULAR HEMOGLOBIN CONCENTRATION” value [2] was 38.25 G/DL. For the same compound, the “MEAN CORPUSCULAR VOLUME” value [2] was 64.47 fL, the MONOCYTE [2] was 4.33% and the NEUTROPHIL [2] was 11.5%. For the same compound, the “PLATELET COUNT” value [2] was 1182.33 x10E3/uL, the “ALANINE AMINOTRANSFERASE” value [2] was 38.67 u/L and the ALBUMIN [2] was 3.55 G/DL. The “ALKALINE PHOSPHATASE” value [2] was 342.5 u/L, the “ASPARTATE AMINOTRANSFERASE” value [2] was 63.33 u/L and the “BLOOD UREA NITROGEN” value [2] was 15.5 mg/dL. For the same compound, the CHLORIDE [2] was 104 MEQ/L, the CHOLESTEROL [2] was 75.5 mg/dL and the “CREATINE PHOSPHOKINASE” value [2] was 142.5 u/L. For the same compound, the CREATININE [2] was 0.62 mg/dL, the GLUCOSE [2] was 165.17 mg/dL and the PHOSPHORUS [2] was 10.87 mg/dL. The POTASSIUM [2] was 6.85 MEQ/L, the SODIUM [2] was 150.17 MEQ/L and the “TOTAL PROTEIN” value [2] was 5.93 G/DL. For the same compound, the BASOPHIL [3] was 0%, the EOSINOPHIL [3] was 0% and the “ERYTHROCYTE COUNT” value [3] was 6.1 x10E6/uL. For the same compound, the HEMATOCRIT [3] was 40.23%, the HEMOGLOBIN [3] was 15.13 G/DL and the “LEUKOCYTE COUNT” value [3] was 11.03 x10E3/uL. For the same compound, the LYMPHOCYTE [3] was 89.33%, the “MEAN CORPUSCULAR HEMOGLOBIN” value [3] was 24.8 pg and the “MEAN CORPUSCULAR HEMOGLOBIN CONCENTRATION” value [3] was 37.63 G/DL. The “MEAN CORPUSCULAR VOLUME” value [3] was 65.97 fL, the MONOCYTE [3] was 1% and the NEUTROPHIL [3] was 9.67%. For the same compound, the “PLATELET COUNT” value [3] was 1191.33 x10E3/uL, the “ALANINE AMINOTRANSFERASE” value [3] was 32.67 u/L and the ALBUMIN [3] was 3.6 G/DL. For the same compound, the “ALKALINE PHOSPHATASE” value [3] was 369 u/L, the “ASPARTATE AMINOTRANSFERASE” value [3] was 58 u/L and the “BLOOD UREA NITROGEN” value [3] was 13.33 mg/dL. The CHLORIDE [3] was 105.67 MEQ/L, the CHOLESTEROL [3] was 75.67 mg/dL and the “CREATINE PHOSPHOKINASE” value [3] was 139.67 u/L. For the same compound, the CREATININE [3] was 0.47 mg/dL, the GLUCOSE [3] was 159 mg/dL and the PHOSPHORUS [3] was 11.23 mg/dL. For the same compound, the POTASSIUM [3] was 6.9 MEQ/L, the SODIUM [3] was 151.33 MEQ/L and the “TOTAL PROTEIN” value [3] was 5.8 G/DL. The BASOPHIL [4] was 0%, the EOSINOPHIL [4] was 0.67% and the “ERYTHROCYTE COUNT” value [4] was 6.35 x10E6/uL. For the same compound, the HEMATOCRIT [4] was 39.23%, the HEMOGLOBIN [4] was 14.37 G/DL and the “LEUKOCYTE COUNT” value [4] was 13.2 x10E3/uL. For the same compound, the LYMPHOCYTE [4] was 89.33%, the “MEAN CORPUSCULAR HEMOGLOBIN” value [4] was 22.67 pg and the “MEAN CORPUSCULAR HEMOGLOBIN CONCENTRATION” value [4] was 36.63 G/DL. The “MEAN CORPUSCULAR VOLUME” value [4] was 61.83 fL, the MONOCYTE [4] was 1% and the NEUTROPHIL [4] was 9%. For the same compound, the “PLATELET COUNT” value [4] was 1248.67 x10E3/uL, the “ALANINE AMINOTRANSFERASE” value [4] was 39.67 u/L and the ALBUMIN [4] was 3.4 G/DL. For the same compound, the “ALKALINE PHOSPHATASE” value [4] was 503.67 u/L, the “ASPARTATE AMINOTRANSFERASE” value [4] was 62.67 u/L and the “BLOOD UREA NITROGEN” value [4] was 13.67 mg/dL. The CHLORIDE [4] was 103.33 MEQ/L, the CHOLESTEROL [4] was 70 mg/dL and the “CREATINE PHOSPHOKINASE” value [4] was 134 u/L. The CREATININE [4] was 0.53 mg/dL, the GLUCOSE [4] was 189.33 mg/dL and the PHOSPHORUS [4] was 12.93 mg/dL. The POTASSIUM [4] was 6.83 MEQ/L, the SODIUM [4] was 147.67 MEQ/L and the “TOTAL PROTEIN” value [4] was 5.63 G/DL. The BASOPHIL [5] was 0%, the EOSINOPHIL [5] was 0% and the “ERYTHROCYTE COUNT” value [5] was 5.89 x10E6/uL. The HEMATOCRIT [5] was 38%, the HEMOGLOBIN [5] was 13.37 G/DL and the “LEUKOCYTE COUNT” value [5] was 9.03 x10E3/uL. For the same compound, the LYMPHOCYTE [5] was 86%, the “MEAN CORPUSCULAR HEMOGLOBIN” value [5] was 22.7 pg and the “MEAN CORPUSCULAR HEMOGLOBIN CONCENTRATION” value [5] was 35.17 G/DL. The “MEAN CORPUSCULAR VOLUME” value [5] was 64.53 fL, the MONOCYTE [5] was 3.33% and the NEUTROPHIL [5] was 10.67%. The “PLATELET COUNT” value [5] was 1233.33 x10E3/uL, the “ALANINE AMINOTRANSFERASE” value [5] was 33 u/L and the ALBUMIN [5] was 3.67 G/DL. The “ALKALINE PHOSPHATASE” value [5] was 296.33 u/L, the “ASPARTATE AMINOTRANSFERASE” value [5] was 50.33 u/L and the “BLOOD UREA NITROGEN” value [5] was 15 mg/dL. The CHLORIDE [5] was 104.67 MEQ/L, the CHOLESTEROL [5] was 62.67 mg/dL and the “CREATINE PHOSPHOKINASE” value [5] was 128 u/L. It also gave a CREATININE [5] of 0.5 mg/dL, a GLUCOSE [5] of 167.33 mg/dL and a PHOSPHORUS [5] of 12.37 mg/dL. For the same compound, the POTASSIUM [5] was 7.2 MEQ/L, the SODIUM [5] was 150.67 MEQ/L and the “TOTAL PROTEIN” value [5] was 5.93 G/DL. The BASOPHIL [6] was 0%, the EOSINOPHIL [6] was 0.33% and the “ERYTHROCYTE COUNT” value [6] was 5.95 x10E6/uL. The HEMATOCRIT [6] was 37.4%, the HEMOGLOBIN [6] was 13.8 G/DL and the “LEUKOCYTE COUNT” value [6] was 11.57 x10E3/uL. The LYMPHOCYTE [6] was 87.33%, the “MEAN CORPUSCULAR HEMOGLOBIN” value [6] was 23.23 pg and the “MEAN CORPUSCULAR HEMOGLOBIN CONCENTRATION” value [6] was 36.93 G/DL. For the same compound, the “MEAN CORPUSCULAR VOLUME” value [6] was 62.9 fL, the MONOCYTE [6] was 0% and the NEUTROPHIL [6] was 12.33%. For the same compound, the “PLATELET COUNT” value [6] was 1286.67 x10E3/uL, the “ALANINE AMINOTRANSFERASE” value [6] was 35 u/L and the ALBUMIN [6] was 3.4 G/DL. The “ALKALINE PHOSPHATASE” value [6] was 311.67 u/L, the “ASPARTATE AMINOTRANSFERASE” value [6] was 52 u/L and the “BLOOD UREA NITROGEN” value [6] was 14 mg/dL. For the same compound, the CHLORIDE [6] was 102.33 MEQ/L, the CHOLESTEROL [6] was 50.67 mg/dL and the “CREATINE PHOSPHOKINASE” value [6] was 124 u/L. It also gave a CREATININE [6] of 0.53 mg/dL, a GLUCOSE [6] of 159.67 mg/dL and a PHOSPHORUS [6] of 12.5 mg/dL. For the same compound, the POTASSIUM [6] was 6.77 MEQ/L, the SODIUM [6] was 148.67 MEQ/L and the “TOTAL PROTEIN” value [6] was 5.7 G/DL.
